Source: patent publication US20250353835A1, “N-TETRAZOLYL ARYL UREA-BASED DERIVATIVES, PREPARATION METHOD THEREFOR, AND USE THEREOF” (Hangzhou Yirui Pharmaceutical Technology Co., Ltd, priority 2022, published 2025)
Read-outs that look alike come from different tables or passages of the source.

How the values were obtained:
[1] = Drug concentration in rat retinas after intraocular injection (HPLC); assay type: in vivo, Wistar rats; conditions: retina
Excerpt: 1.1 Experimental aminals: SPF-grade male Wistar rats weighed 180-220 g.
1.2 Drugs and reagents: Compound 71; sodium chloride injection (Shandong Qidu Pharmaceutical Co., Ltd., Batch No.: 3B151014124); acetonitrile (chromatographically pure, TEDIA, USA); methanol (chromatographically pure, SIGMA-ALDRICH product); triethylamine (analytically pure, Hangzhou Gaojing Fine Chemical Co., Ltd.).
1.3 Experimental grouping and administration: according to the sampling time, 33 male Wistar rats were divided into 11 groups (three rats per group) of: (1) control group; (2) 0 h; (3) 2 h; (4) 6 h; (5) 24 h; (6) 48 h; (7) 72 h; (8) 5 d; (9) 7 d; (10) 10 d; (11) 14 d. Three rats in the control group were injected with solvent (sterile normal saline) intraocularly, and the remaining 30 rats were injected with Compound 71 intraocularly at a concentration of 0.5% by using a 5 μL microinjector, and 5 μL of drug was injected per bulbus oculi.
1.4 Sampling and detection index: The retina of the rat in the control group was taken on Day 14 (14 d), and the retina of the remaining 30 rats was taken at the corresponding time points. The retina were frozen in liquid nitrogen, and then subjected to the subsequent HPLC detection.
1.5.1 Chromatographic conditions: The mobile phase was chromatographic grade acetonitrile-water=25-75 (v/v). The flow rate was 0.5 mL/min. The column temperature was 25° C. The UV detection wavelength was 254 nm. The injection volume was 20 μL.
1.5.2 Sample processing and preparation: the sample of the rat retina was taken out from the ultra-low temperature (−80° C.) refrigerator, accurately weighed and placed in a glass homogenizer, and ethyl acetate as an organic solvent pre-cooled in a 4° C. refrigerator was added at a ratio of 100 mL/g. The homogenizer was placed in an ice bath for homogenization. After homogenization, all the homogenate was poured into a 5 mL stoppered centrifuge tube. The centrifugation was performed at a low temperature of 4° C. for 5 min (5000 r/min). All the organic phase as the upper layer was accurately taken out and placed in a glass tube with conical bottom. The remaining residue of retina was extracted with 2 mL ethyl acetate repeatedly once. After centrifugation, the two organic phases were combined. Then, the centrifuge tube with conical bottom was blowed for dryness in a nitrogen flow in a 45° C. water bath. The residue was redissolved with 0.1 mL of chromatographic methanol, vortex mixed for 1 min, and centrifuged for 5 min at a high speed of 18000 r/min. 20 μL of the supernatant was taken, and analyzed in a high-performance liquid chromatography system.
1.5.3 Sample determination: After intraocular injection of 5 μL of 0.5% Compound 71, the retina was taken at different time points to analyze the drug content of the test compound in the retina.
1.5.4 Experimental results and conclusions: According to the retinal drug concentration-time curve, it is in conformity to the non-absorption two-compartment model. According to the pharmacokinetic non-absorption two-compartment model theory, the pharmacokinetic parameters of the drug were calculated.

CYP3A4 = target: T1, CYP3A4 (Homo sapiens, UniProt P08684); assay: CYP450 inhibition in human liver microsomes (substrate method, LC-MS/MS); assay type: in vitro ADME; conditions: read-out: CYP inhibition IC50 [μM], 3A4
T1 construct: from tissue; host or cells: human liver microsomes
T1 sequence (P08684 whole entry): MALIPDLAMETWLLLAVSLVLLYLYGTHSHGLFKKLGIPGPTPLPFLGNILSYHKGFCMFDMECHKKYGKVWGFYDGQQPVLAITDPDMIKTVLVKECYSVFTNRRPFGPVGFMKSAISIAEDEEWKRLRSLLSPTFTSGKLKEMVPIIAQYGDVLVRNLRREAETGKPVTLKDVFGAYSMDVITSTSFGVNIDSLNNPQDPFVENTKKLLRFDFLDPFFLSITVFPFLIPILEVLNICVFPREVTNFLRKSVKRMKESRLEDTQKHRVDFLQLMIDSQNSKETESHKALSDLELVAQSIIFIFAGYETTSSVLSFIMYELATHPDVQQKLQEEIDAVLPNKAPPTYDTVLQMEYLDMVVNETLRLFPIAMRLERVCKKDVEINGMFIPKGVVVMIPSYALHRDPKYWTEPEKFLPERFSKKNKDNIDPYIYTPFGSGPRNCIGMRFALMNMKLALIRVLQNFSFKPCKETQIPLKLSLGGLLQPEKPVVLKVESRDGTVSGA
Protocol: (§1) In addition, the LC-MS/MS method was used to determine the substrate metabolites of 5 major subtypes of human liver microsomal CYP450 enzymes (including CYP1A2, CYP2D6, CYP2C8, CYP2C9, and CYP3A4). The substrate method was used to determine the activity of human liver microsomal CYP450 enzyme. The established incubation system was verified using known inhibitors to investigate the inhibitory effect of the compound on CYP450 enzyme. For the enzyme induction test, a primary cultured human hepatocyte incubation system was used. 3-methylcholanthrene, phenobarbital, and rifampicin were used as positive control inducers of CYP1A2, CYP2B6, and CYP3A4, and phenacetin, bupropion, and testosterone were used as the substrate for CYP1A2, CYP2B6, and CYP3A4. The CYP450 enzyme activity was calculated by measuring the generation rate of 3 specific substrate metabolites in the incubation solution. Meanwhile, the total RNA was extracted from the human hepatocytes after incubation, and the real-time fluorescence quantitative PCR method was used to determine the mRNA expression level of CYP1A2, […], and CYP3A4. The enzyme activity and mRNA transcription level were used as endpoints to investigate the inductive effect of the compound on human liver P450 isoenzymes CYP1A2, […], and CYP3A4. The liver microsomal metabolism parameters in vitro are shown in Table 2B3 taking Compound 8 as an example.

[2] = Liver microsomal metabolism in vitro, human LM clearance; assay type: in vitro ADME; conditions: human liver microsomes in vitro
Protocol: as §1

[3] = intraocular injection of 5 μL of 0.5% per eye, two-compartment model

| concentration at 14 d ([1]; male, Wistar, rat, other: intraocular injection, 5 μL of 0.5% solution per eye, Day 14 after intraocular injection of 0.5% (5 μL per eye), read-out: retinal concentration) | half-life ([1]; male, Wistar, rat, topical or ocular, 5 μL of 0.5% solution per eye, intraocular injection of 5 μL of 0.5% per eye, two-compartment model, read-out: Distribution half-life (converted)) | half-life ([1]; male, Wistar, rat, topical or ocular, 5 μL of 0.5% solution per eye, intraocular injection of 5 μL of 0.5% per eye, two-compartment model, read-out: Elimination half-life (converted)) | AUC ([1]; male, Wistar, rat, topical or ocular, 5 μL of 0.5% solution per eye, intraocular injection of 5 μL of 0.5% per eye, two-compartment model, read-out: Area under the time curve AUC) | Apparent distribution volume [1, 3] | Total clearance CLT [1, 3] | IC50 (CYP3A4) | Human LM clearance [2] | SMILES |
| --- | --- | --- | --- | --- | --- | --- | --- | --- |
| 1240 nM | 6.97 h | 408 h | 901 µg·h/mL | 0.001676 L | 5.55e-05 L/h |  |  | CCOc1ccc(-c2ccc(NC(=O)N[C@H]3CC[C@H](C)CC3)cc2-c2nn[nH]n2)cn1 [Compound 71, 1-(4-(6-ethoxypyrid-3-yl)-3-(2H-tetrazol-5-yl)phenyl)-3-((trans)-4-methylcyclohexyl)urea] |
|  |  |  |  |  |  | 50 µM | 8.5 mL/min/kg | CCOc1ccc(-c2c(F)cc(NC(=O)N3CCC(C(C)(C)C)CC3)cc2-c2nn[nH]n2)cn1 [Compound 8, 4-(tert-butyl)-N-(4-(6-ethoxypyrid-3-yl)-3-fluoro-5-(2H-tetrazol-5-yl)phenyl)piperidine-1-carboxamide] |
